Measured values reported in patent publication EP3315495A1, “N,N' -[…], N,N' -DIAR[…] N,N' -DIARY[…] FOR USE IN TREATMENT AND PREVENTION OF INFLAMMATORY DISEASE” (Universität Innsbruck, priority 2016, dated 2018).
Like-named read-outs stand apart in the source and are kept apart here.

Assays:
[1] = target: T1, sEH (Homo sapiens, UniProt P34913); assay: biochemical; details: read-out: Effect on sEH activity, % inhibition
T1 sequence (P34913 1-555): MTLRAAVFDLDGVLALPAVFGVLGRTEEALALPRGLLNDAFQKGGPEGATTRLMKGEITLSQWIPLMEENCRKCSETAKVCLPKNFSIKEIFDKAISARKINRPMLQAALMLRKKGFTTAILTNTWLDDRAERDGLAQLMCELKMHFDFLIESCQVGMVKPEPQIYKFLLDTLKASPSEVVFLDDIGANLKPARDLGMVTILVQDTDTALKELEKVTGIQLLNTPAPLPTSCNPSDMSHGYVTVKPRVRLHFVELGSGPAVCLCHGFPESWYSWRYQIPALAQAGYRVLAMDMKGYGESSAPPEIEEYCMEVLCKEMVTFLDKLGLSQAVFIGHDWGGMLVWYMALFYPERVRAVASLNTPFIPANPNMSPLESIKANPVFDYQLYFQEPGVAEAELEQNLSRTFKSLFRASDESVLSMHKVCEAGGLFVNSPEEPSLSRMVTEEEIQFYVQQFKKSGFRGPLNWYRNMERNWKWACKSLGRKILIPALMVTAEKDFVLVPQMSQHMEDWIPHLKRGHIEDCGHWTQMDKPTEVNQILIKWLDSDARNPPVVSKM
Protocol: (§2) In brief, sEH was expressed in transfected Sf9-cells. Isolation of sEH from the cell pellet was conducted with a benzylthiosepharose matrix. […] The reaction was stopped with ZnSO4 (0.2 M) after 60 min incubation. […] Inhibitors were tested for self fluorescence. Positive controls were AUDA (12-(3-adamantan-1-yl-ureido)dodecanacid) and DCU (N,N'-dicyclohexylurea) at 10 µM.

[2] = target: T2, isolated 5-LOX (Homo sapiens, UniProt P09917); assay: FLAP-independent cell-free enzymatic assay with isolated recombinant 5-LOX; assay type: biochemical; details: for inhibition at 10 µM: read-out: Effect on isolated 5-LOX, % inhibition
T2 construct: made in house; host or cells: E. coli
T2 sequence (P09917 1-674): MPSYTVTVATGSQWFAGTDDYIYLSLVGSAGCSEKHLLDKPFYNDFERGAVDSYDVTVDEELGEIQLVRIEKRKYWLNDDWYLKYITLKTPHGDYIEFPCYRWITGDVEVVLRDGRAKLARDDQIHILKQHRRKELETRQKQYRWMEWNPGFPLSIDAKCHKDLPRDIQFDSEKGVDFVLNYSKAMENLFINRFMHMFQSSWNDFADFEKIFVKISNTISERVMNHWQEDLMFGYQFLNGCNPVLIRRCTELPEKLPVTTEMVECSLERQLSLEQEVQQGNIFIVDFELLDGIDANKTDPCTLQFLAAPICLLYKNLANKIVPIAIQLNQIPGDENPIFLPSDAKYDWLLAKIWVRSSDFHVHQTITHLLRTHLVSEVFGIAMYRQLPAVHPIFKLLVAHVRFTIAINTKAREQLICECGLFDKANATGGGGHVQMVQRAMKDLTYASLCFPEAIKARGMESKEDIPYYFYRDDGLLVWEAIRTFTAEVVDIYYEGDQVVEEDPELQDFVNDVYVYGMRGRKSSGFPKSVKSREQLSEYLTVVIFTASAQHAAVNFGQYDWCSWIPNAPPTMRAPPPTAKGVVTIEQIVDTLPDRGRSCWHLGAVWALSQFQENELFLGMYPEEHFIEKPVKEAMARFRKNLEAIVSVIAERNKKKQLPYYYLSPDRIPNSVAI
Protocol: (§1) In both assays, product quantification was conducted with RP-HPLC and UV detection after solid phase extraction and addition of 200 ng prostaglandin B1 as internal standard.

[3] = target: T3, FLAP (Homo sapiens, UniProt P20292); details: active = inhibition of product formation in cells without 5-LOX activity in the cell-free assay
T3 sequence (P20292 1-161): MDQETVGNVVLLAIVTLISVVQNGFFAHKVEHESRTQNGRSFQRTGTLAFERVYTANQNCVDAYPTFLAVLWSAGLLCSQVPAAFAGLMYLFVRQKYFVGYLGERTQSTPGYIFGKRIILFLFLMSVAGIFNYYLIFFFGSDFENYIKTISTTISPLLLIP
Protocol: The enzyme was preincubated for 15 min with the potential inhibitor on ice and subsequently exposed to 2 mM CaCl2 and 20 µM AA for 10 min at 37°C.
Effect on 5-LOX product formation and sEH activity is determined as described above. In case of observed effect on 5-LOX product formation in the cellular assay, 5-LOX activity was investigated with isolated 5-LOX.

[4] = tested on: 5-LOX product formation in PMNL; assay: 5-LOX product formation in PMNL stimulated with A23187 (cell-based); parameters: species or system human; details: for inhibition at 10 µM: read-out: Effect on 5-LOX product formation in PMNL, % inhibition; for IC50: read-out: Effect on 5-LOX product formation in PMNL, IC50
Protocol: Briefly, first a cell-based assay allows to determine the inhibition of the 5-LOX product biosynthesis. The cell suspension contained human neutrophils (PMNL) or monocytes, wherein the cells were isolated from buffy coats obtained from healthy donors pooled by gender. An aliquot cell suspension was incubated with the candidate compound for 15 min at 37 °C. The cells are treated with calcium ionophore A23187 to stimulate 5-LOX product formation for further 10 min (37 °C), optionally in presence of various concentrations of AA. The reaction was stopped with 1 mL methanol on ice.
as §1

[5] = target: T1, sEH; details: at 0.1 µM
Protocol: as §2

SMILES	inhibition at 10 µM [1] [%]	inhibition at 10 µM ([2]; at 10 µM) [%]	Effect on FLAP activity [3]	inhibition at 10 µM ([4]; Homo sapiens, PMNL, at 10 µM) [%]	IC50 ([4]; Homo sapiens, PMNL) [nM]	inhibition at 0.1 µM [1] [%]	also measured
Cc1cc(OCc2nc3ccccc3n2C(=O)OC(C)(C)C)ccc1NC(=S)Nc1ccc(Cl)c(Cl)c1 [EZ15, N-[4-(1-tert.-Butoxycarbonyl-1H-benzimidazol-2-ylmethoxy)-2-methylphenyl]-N'-(3,4-dichlorophenyl)-thiourea]	~66	~33	inactive	~39	–	–	–
Cc1cc(OCc2nc3ccccc3[nH]2)ccc1NC(=S)Nc1ccc(Cl)c(Cl)c1 [EZ17, N-[4-(1H-Benzimidazol-2ylmethoxy)-2-methylphenyl]-N'-(3,4-dichlorophenyl)-thiourea]	~64	65	active	–	820	–	–
CC(C)(C)OC(=O)n1c(COc2ccc(NC(=O)Nc3ccc(Cl)c(Cl)c3)cc2)nc2ccccc21 [EZ18, N-[4-(1-tert.-Butoxycarbonyl-1H-benzimidazol-2-ylmethoxy)-phenyl]-N'-(3,4-dichlorophenyl)-urea]	–	~22	–	~40	–	~67	–
O=C(Nc1ccc(OCc2nc3ccccc3[nH]2)cc1)Nc1ccc(Cl)c(Cl)c1 [EZ19, N-[4-(1-H-Benzimidazol-2-ylmethoxy)-phenyl]-N'-(3,4-dichlorophenyl)-urea]	–	–	active	–	–	–	Effect on isolated 5-LOX, % inhibition ([2]; at 10 µM): ∼33 % inhibitio n at 10 µM; IC50 [4]: 550 nM; Effect on sEH activity, % inhibition [5]: ∼52 % inhibition at 0.1 µM
CC(C)(C)OC(=O)n1c(COc2ccc(NC(=S)Nc3ccc(Cl)c(Cl)c3)cc2)nc2ccccc21 [EZ20, N-[4-(1-tert.-Butoxycarbonyl-1H-benzimidazol-2-ylmethoxy)-phenyl]-N'-(3,4-dichlorophenyl)-thiourea]	–	–	inactive	–	–	~39	inhibition at 10 µM [2]: ~39%; inhibition at 10 µM ([4]; Homo sapiens, PMNL): -65%
S=C(Nc1ccc(OCc2nc3ccccc3[nH]2)cc1)Nc1ccc(Cl)c(Cl)c1 [EZ21, N-[4-(1-H-Benzimidazol-2-ylmethoxy)-phenyl]-N'-(3,4-dichlorophenyl)-thiourea]	~54	87	–	–	690	–	–
